# Assay results: patent publication US20220396818A1, “POLYNUCLEOTIDE SYNTHESIS METHOD, KIT AND SYSTEM” (Oxford Nanopore Technologies PLC, priority 2019, published 2022)
# B1: Endo V: Human Endonuclease V (Endo V) NEB (protein, UniProt Q8N8Q3 1-282, looked up)
# Endonuclease V: MALEAAGGPPEETLSLWKREQARLKAHVVDRDTEAWQRDPAFSGLQRVGGVDVSFVKGDSVRACASLVVLSFPELEVVYEESRMVSLTAPYVSGFLAFREVPFLLELVQQLREKEPGLMPQVLLVDGNGVLHHRGFGVACHLGVLTDLPCVGVAKKLLQVDGLENNALHKEKIRLLQTRGDSFPLLGDSGTVLGMALRSHDRSTRPLYISVGHRMSLEAAVRLTCCCCRFRIPEPVRQADICSREHIRKSLGLPGPPTPRSPKAQRPVACPKGDSGESSALC
# Key:
# [1] = system: Therminator X DNA polymerase; test: Incorporation of 3′-O-azidomethyl-dNTPs to the 3′ end of blunt-ended DNA by Therminator X DNA polymerase (gel); assay type: biochemical, Thermococcus species 9° N; conditions: presence of Mn2+ ions, 37° C.
# Protocol: • 1. 5 μl of 10× Thermopol® buffer (20 mM Tris-HCl, 10 mM (NH4)2SO4, 10 mM KCl, 2 mM MgSO4, 0.1% Triton® X-100, pH 8.8, New England Biolabs) was mixed with 33.5 μl of sterile deionized water (ELGA VEOLIA) in a 1.5 ml Eppendorf tube. • 2. 2 μl of 20 μM primer (40 pmol, 1 equiv) (SEQ ID: NO: 68, FIG. 56a) and 3 μl of 20 μM template (60 pmol, 1.5 equiv) (SEQ ID: NO: 69, FIG. 56a) were added to the reaction mixture. • 3. 3′-O-modified-dTTP (2 μl of 100 μM) and MnCl2 (2.5 μl of 40 mM) were added. • 4. 2 μl of Therminator X DNA polymerase (20 U, New England BioLabs) was then added. • 5. The reaction was incubated for 30 minutes at 37° C. • 6. The reaction was stopped by addition of TBE-Urea sample buffer (Novex). • 7. The reaction was separated on polyacrylamide gel (15%) TBE buffer and visualized by ChemiDoc MP imaging system (BioRad).
# [2] = system: Therminator IX DNA polymerase; test: Incorporation of 3′-O-modified-dNTPs opposite complementary base by Therminator IX DNA polymerase, with helper strand (gel); assay type: biochemical, Thermococcus species 9° N
# Protocol: • 1. 2 μl of 10× Thermopol® buffer (20 mM Tris-HCl, 10 mM (NH4)2SO4, 10 mM KCl, 2 mM MgSO4, 0.1% Triton® X-100, pH 8.8, New England BioLabs) was mixed with 12.25 μl of sterile deionized water (ELGA VEOLIA) in 1.5 ml Eppendorf tube. • 2. 0.5 μl of 10 μM primer (5 pmol, 1 equiv) (SEQ ID NO: 22, FIG. 23j) and 0.75 μl of 10 μM template-A/G/T/C ([…], 1.5 equiv) (SEQ ID NOS: 23 to 26, FIG. 23j) and 1 μl of 10 μM helper strand-T/C/A/G (10 pmol, 2 equiv) (SEQ ID NOS: 27 to 30, FIG. 23j) were added to the reaction mixture. • 3. 3′-O-modified-dTTP/dCTP/dATP/dGTP (2 μl of 100 μM) and MnCl2 (1 μl of 40 mM) were added. • 4. 1.5 μl of Therminator IX DNA polymerase (15 U, New England BioLabs) was then added. • 5. […] The reaction was stopped by addition of TBE-Urea sample buffer (Novex). • 7. The reaction was separated on polyacrylamide gel (15%) TBE buffer and visualized by ChemiDoc MP imaging system (BioRad).
# • 1. 5 μl of reaction mixture was added to 5 μl of TBE-Urea sample buffer (Novex) in a sterile 1.5 ml Eppendorf tube and heated to 95° C. for 5 minutes using a heat ThermoMixer (Eppendorf). • 2. 5 μl of the sample were then loaded into the wells of a 15% TBE-Urea gel 1.0 mm×10 well (Invitrogen) which contained preheated 1×TBE buffer Thermo Scientific (89 mM Tris, 89 mM boric acid and 2 mM EDTA). • 3. […]
# [3] = system: DNA containing inosine; test: Two-step cleavage of inosine-containing oligonucleotide with hAAG and base or Endo VIII (gel); assay type: biochemical
# Protocol: A cleavage reaction on oligonucleotides was carried out using the procedure below: • 1. A pipette (Gilson) was used to transfer 41 μl sterile distilled water (ELGA VEOLIA) into a 1.5 ml Eppendorf tube. • 2. 50 of 10× ThermoPol® reaction buffer NEB (20 mM Tris-HCl, 10 mM (NH4)2SO4, 10 mM KCl, 2 mM MgSO4, 0.1% Triton® X-100, pH 8.8) were then added into the same Eppendorf tube. • 3. 10 each of oligonucleotides (FIG. 18e); template (SEQ ID NO: 3) or any fluorescently tagged long oligo strand, primer with T (SEQ ID NO: 4) and control (SEQ ID NO: 5) all at 5 pmols were added into the same tube. • 4. 10 of Human Alkyladenine DNA Glycosylase (hAAG) NEB (10 units/0) was added into the same tube. • 5. Reaction mixture was then gently mixed by resuspension with a pipette, centrifuged at 13,000 rpm for 5 seconds and incubated at 37° C. for 1 hour. • 6. Typically after incubation time had elapsed, the reaction was terminated by enzymatic heat inactivation (i.e. 65° C. for 20 minutes).
# • 1. 2 μl (10-100 ng/0) DNA was added into a sterile 1.5 ml Eppendorf tube. • 2. 40 μl (0.2M) NaOH or 1.5 μl Endo VIII NEB (10 units/0) and 5 μl 10× Reaction Buffer NEB (10 mM Tris-HCl, 75 mM NaCl, 1 mM EDTA, pH 8 @ 25° C.) was also added into the same tube and gently mixed by resuspension and centrifugation at 13000 rpm for 5 sec. • 3. […]
# [4] = system: Hairpin Oligonucleotide; test: Cleavage of hairpin oligonucleotide with Endonuclease V (gel); assay type: biochemical; conditions: 37° C.
# Protocol: Cleavage reaction on hairpin oligonucleotides was carried out using the procedure below: • 1. A pipette (Gilson) was used to transfer 43 μl sterile distilled water (ELGA VEOLIA) into a 1.5 ml Eppendorf tube. • 2. 50 of 10× Reaction Buffer® NEB (50 mM potassium acetate, 20 mM Tris-acetate, 10 mM magnesium acetate, 1 mM DTT, pH 7.9@25° C.) was then added into the same Eppendorf tube. • 3. 111 of hairpin oligonucleotide (SEQ ID NO: 45, FIG. 28c) having an amount of 5 pmols was added into the same tube. • 4. 10 of Human Endonuclease V (Endo V) NEB (30 units/μl) was added into the same tube. • 5. […] Typically after incubation time had elapsed, the reaction was terminated by enzymatic heat inactivation (i.e. 65° C. for 20 minutes).
# (§1) • 1. 5 μl of DNA and TBE-Urea sample buffer (Novex) was added into a sterile 1.5 ml Eppendorf tube and heated to 95° C. for 2 minutes using a heat ThermoMixer (Eppendorf). • 2. The DNA mixtures were then loaded into the wells of a 15% TBE-Urea gel 1.0 mm×10 well (Invitrogen) which contained preheated 1×TBE buffer Thermo Scientific (89 mM Tris, 89 mM boric acid and 2 mM EDTA). • 3. X-cell sure lock module (Novex) was fastened in place and electrophoresis performed at the following conditions; 260V, 90 Amps for 40 minutes at room temperature. • 4. Detection and visualization of DNA in the gel was carried out with ChemiDoc MP (BioRad) using Cy3 LEDS. Visualization and analysis was carried out on the Image lab 2.0 platform.
# [5] = system: DNA containing inosine; test: One-step cleavage of oligonucleotide with Endonuclease V (gel); assay type: biochemical; conditions: 37° C.
# Protocol: Cleavage reaction on oligonucleotides was carried out using the procedure below: • 1. A pipette (Gilson) was used to transfer 41 μl sterile distilled water (ELGA VEOLIA) into a 1.5 ml Eppendorf tube. • 2. 50 of 10× Reaction Buffer® NEB (50 mM Potassium Acetate, 20 mM Tris-acetate, 10 mM Magnesium Acetate, 1 mM DTT, pH 7.9@25° C.) was then added into the same Eppendorf tube. • 3. 1 μl each of oligonucleotides (FIG. 24d); Template (SEQ ID NO: 31) or any fluorescently tagged long oligo strand, Primer with T (SEQ ID NO: 32) and control (SEQ ID NO: 33) and helper strand (SEQ ID NO: 34), all at 5 pmols, were added into the same tube. • 4. 1 μl of Human Endonuclease V (Endo V) NEB (10 units/μl) was added into the same tube. • 5. Reaction mixture was then gently mixed by resuspension with a pipette, centrifuged at 13,000 rpm for 5 seconds and incubated at 37° C. for 1 hour. • 6. Typically after incubation time had elapsed, reaction was terminated by enzymatic heat inactivation (i.e. 65° C. for 20 minutes).
# as §1, with “thermoblock” for “ThermoMixer”, “Chemidoc” for “ChemiDoc”
molecule,measurement,setting,value
3′-O-azidomethyl-dATP,Incorporation efficiency,[1],> 99%
3′-O-azidomethyl-dCTP,Incorporation efficiency,[1],> 90%
3′-O-azidomethyl-dGTP,Incorporation efficiency,[1],> 99%
3′-O-azidomethyl-dTTP,primer remains unextended,[2]; after 20 minutes at 37° C. and 47° C.,10%
same,Incorporation,"[2]; in the presence of a helper strand, after 5 minutes",90%
same,Incorporation efficiency,[1],> 99%
hAAG DNA glycosylase: Human Alkyladenine DNA Glycosylase (hAAG) NEB,yield of cleaved DNA (cleaved to uncleaved DNA ratio),[3]; with a helper strand,50%
same,yield of cleaved DNA (cleaved to uncleaved DNA ratio),[3]; without a helper strand,10%
B1,yield of digested DNA,[4]; after 5 minutes,~98%
same,yield of digested DNA,[4]; after 10 minutes,~99%
same,yield of digested DNA,[4]; after 30 minutes,~99%
same,yield of digested DNA,[4]; after 1 hr,~99%
same,yield of cleaved DNA (cleaved to uncleaved DNA ratio),[5]; positive control that contained both full length strands,80%
same,DNA cleavage yield,[5]; with a helper strand,> 99%
same,yield of cleaved DNA,[5]; without a helper strand,> 99%
